# Test results taken from patent publication US9546193B2, “Compositions and methods for 18F-fluorodeoxyglycosylamines” (The Regents of the University of California, priority 2013, dated 2017).
# Like-named read-outs stand apart in the source and are kept apart here.
# What was measured:
# Format in all cases: binding
# [1] = tested on: postmortem human brain Aβ-amyloid sites
# From the text: (§1) The brain sections were air dried, exposed overnight on a phosphor film, and then placed on the Phosphor Autoradiographic Imaging System/Cyclone Storage Phosphor System (Packard Instruments Co).
# as §1
# [2] = tested on: human Aβ-amyloid plaques; experiment: 3H-PIB competition autoradiography on postmortem AD brain sections; details: 10 μM competitor; postmortem AD human brain slices; preliminary studies
# Protocol: ^3H-PIB Binding: Human hippocampus sections (7 μm thick) were preincubated in 10% alcohol PBS buffer for 10 minutes. The brain sections were placed in a glass chamber and incubated with [^3H]-PIB (2 μCi/cc) in 10% alcohol PBS buffer, pH 7.4 at 37° C. for 1 hr. The slices were then washed with cold 10% alcohol PBS buffer (2×3 mins), cold deionized water 1 min, respectively. The brain sections were air dried, exposed overnight on a phosphor film, and then placed on the Phosphor Autoradiographic imaging System/Cyclone Storage Phosphor System (Packard Instruments Co). Regions of interest (ROIs) were drawn on the slices and the extent of binding of ^3H-PIB was measured with DLU/mm2 using the OptiQuant acquisition and analysis program (Packard Instruments Co).
# Since FDGBTA is an analog of PIB, which is known to bind to human Aβ-amyloid plaques, the inventors tested competition of both PIB and FDGBTA with postmortem human brain Aβ-amyloid sites labeled with ^3H-PIB as is illustrated in Panel A of FIG. 5, with the corresponding photomicrographs in Panel B of FIG. 5.
# [3] = tested on: Aβ-Amyloid plaques; experiment: Human brain homogenate assay, displacement of 3H-PIB; details: 3H-PIB displacement curve; rFDGBTA 10^−11 to 10^−4 M; PBS buffer, 10% alcohol, pH 7.4
# Protocol: rFDGBTA: Reductive amination was carried out at room temperature using an anhydrous solution of molecular sieves, methanol and acetic acid. The yield for the reduced rFDGBTA was 94%. Human brain homogenate assay of rFDGBTA for Aβ-Amyloid plaques was investigated. The homogenate was suspended in different concentrations of rFDGBTA (10^−11 to 10^−4M) in the assay buffer (PBS buffer, 10% alcohol, pH 7.4). Nonspecific binding was determined by including […]. Total assay volume was 0.25 ml.
compound,measurement,setting,value
2-^18F-Fluorodeoxyglucose [18F-FDG],binding to AD brain grey matter / Aβ-amyloid plaques (in words),[1],did not exhibit any binding
[11CH3]Nc1ccc(-c2nc3ccc(O)cc3s2)cc1 [11C-PIB],binding to AD brain grey matter / Aβ-amyloid plaques (in words),"[1]; postmortem AD human brain sections, autoradiography",significant binding
same,"ratio of binding, AD brain versus control subjects (grey matter)","[1]; postmortem human hippocampus sections, autoradiography",6
OCC1OC(Nc2ccc(-c3nc4ccc(O)cc4s3)cc2)C(F)C(O)C1O (centres unmarked) [FDGBTA],reduction of 3H-PIB binding in the grey matter areas,[2],80%
OCC(O)C(O)C(O)C(F)CNc1ccc(-c2nc3ccc(O)cc3s2)cc1 (centres unmarked) [rFDGBTA],binding compared to PIB (times weaker),[3],~100 times
